The values below come from US7041639B2, “Depsipeptide and congeners thereof for use as immunosuppressants” (XCYTE Therapies, Inc., priority 1999, dated 2006).

Assay [1] concerns Haras transfected mouse fibroblasts (NIH-3T3). To be noted: background statement; cited from earlier work.
In assay [2] the test system is activation markers on CD4 cells. Put plainly: Activation marker assays by flow cytometry. It is filed as cell-based, human. An excerpt: The effect of FR901228 on the induction of various activation markers on CD4 cells is studied. In this regard, cells are labeled with one or more of the following antibodies: anti-human CD4 Ab (Immunotech, Fullerton, Calif.), FITC-coupled anti-human CD11a Ab (Pharmingen), FITC-coupled anti-human CD26 Ab (Pharmingen), FITC-coupled anti-human CD49d Ab (Coulter), FITC-coupled anti-human CD54 Ab (Pharmingen and Becton Dickinson), FITC-coupled anti-human CD95 Ab (Pharmingen), FITC-coupled anti-human CD134 Ab (Pharmingen), FITC-coupled anti-human CD25 Ab (Becton Dickinson, Fullerton, Calif.), FITC-coupled anti-human CD69 Ab (Becton Dickinson), FITC- or PE-coupled anti-human CD154 Ab (Becton Dickinson), or FITC- or PE- coupled IgG1 isotype control Ab. Cells, 2×10^5 are labeled for 20 minutes at 4° C. with 2 μl of each antibody in a final volume of 30 μl, washed and resuspended in 1% parformaldehyde (Sigma, St. Louis, Mo.). […] In contrast, CD69 induction is not affected by 100 ng/ml FR901228 (FIG. 5C).
A general note: Flow cytometry measures light scatter and fluorescence of single cells or particles in a stream.

In assay [3] the test system is CD154 promoter in Jurkat T-cells. The assay can be described thus: GFP reporter under control of the CD154 promoter. The class given is cell-based. The conditions noted are these: 24 hours 3×28 beads; 0, 10, 50, 100 ng/ml; FIG. 11. How it is done: In this experiment Jurkat T-cells were stabily transfected with a vector construct (p-EGFP1, Clonetech) wherein the nucleotide sequence encoding green fluorescent protein was operably linked to the CD154 promoter cloned from Jurkat cells. Following selection of cells containing the vector of interest, the cells were subjected to stimulation for 24 hours with 3×28 beads in the presence of varying concentrations (0 to 100 ng/ml) of FR901228. Fluorescence was then detected using flow cytometry.

Another assay deals with NODSCID mice. Put plainly: Diabetes onset in NODSCID mice given NOD spleen cells. The class given is in vivo. The conditions noted are these: 0.5 mg/kg i.p. every other day. On the procedure: FR901228 was dissolved in 10% DMSO in PBS and were administered i.p. to NOD or NODSCID mice every other day. Controls contained only the DMSO excipient (10% DMSO in PBS). […] 0.5 mg/kg of FR901228 was administered at each treatment to twenty animals (ten NOD animals and ten NODSCID animals). Every two weeks the number of mice in each treatment group that had become diabetic was evaluated by measuring blood glucose levels using a glucometer at bi-weekly intervals. A reading of more than 200 mg/dl of blood glucose on two consecutive observations was considered indicative of frank diabetes.

Where [4] appears, read: 3×28 beads, 20 ng/ml, FIGS. 8A–8B.

The structures appear in SMILES notation. Where “and” joins values, the source holds several entries; their conditions need not be identical. Equal values may be shown once.

Consider `C/C=C1\NC(=O)[C@H]2CSSCC/C=C/[C@H](CC(=O)N[C@H](C(C)C)C(=O)N2)OC(=O)[C@H](C(C)C)NC1=O` [FR901228], for which the “transformation of Haras transfected NIH-3T3” value in assay [1] is reported as “inhibit transformation”. Moreover, in assay [2] (100 ng/ml, FIG. 5C), the CD69 induction result is “not affected”. For the same compound, in assay [2] (setting [4]), the “CD69 induction or activation induced downregulation of CD62L” value is “no significant affect”; the “induction of CD25, CD134, CD137w, CD154, CD11a, CD54, and CD95 on CD4 T-cells” value is “inhibition”. Besides, the “lowest concentration at which CD154 expression is strongly suppressed” value in assay [2] (after 3×28 bead stimulation, FIG. 5A) worked out at 10 ng/mL. Further, the “lowest concentration at which CD25 expression is strongly suppressed” value in assay [2] (after 3×28 bead stimulation, FIG. 5B) was found to be 10 ng/mL. For the same compound, in assay [3], the “induction of GFP expression under CD154 promoter” value is recorded as “only cells having 0 ng/ml of FR901228 showed induction of GFP expression”. In addition, the “delay of onset of frank diabetes versus excipient only” value with NODSCID mice (frank diabetes = more than 200 mg/dl on two consecutive observations) was “at least two”. In addition, in the assay on NODSCID mice (NODSCID, head 'age (wks.)' 6, one line per mouse), the “blood glucose / status of single mouse, column 6 (5/9)” value stood at 261 mg/dL. Moreover, the “blood glucose / status of single mouse, (5/23)” value with NODSCID mice (NODSCID, head 'age (wks.)' 8, one line per mouse, 0.5 mg/kg) is 547 mg/dL and 527 mg/dL. For the same compound, the “blood glucose / status of single mouse, (6/6)” value in the assay on NODSCID mice (NODSCID, head 'age (wks.)' 10, one line per mouse, 0.5 mg/kg) is 482 mg/dL and 526 mg/dL and 343 mg/dL and 317 mg/dL and 299 mg/dL and 412 mg/dL and 441 mg/dL and 494 mg/dL and 399 mg/dL and 285 mg/dL. In the assay with NODSCID mice (NODSCID, head 'age (wks.)' 12, one line per mouse, 0.5 mg/kg), the “blood glucose / status of single mouse, (6/20)” value was “High (2×) and 566 mg/dl and 596 mg/dl and 568 mg/dl and 539 mg/dl and 338 mg/dl and 240 mg/dl and Dead and 576 mg/dl”. Further, in the assay on NODSCID mice (NODSCID, head 'age (wks.)' 14, one line per mouse, 0.5 mg/kg), the “blood glucose / status of single mouse, 7/4” value is 536 mg/dl and 402 mg/dl and Dead (5×) and 494 mg/dl and 558 mg/dl. Also, the “blood glucose / status of single mouse, column 16 (7/18)” value in the assay with NODSCID mice (NODSCID, head 'age (wks.)' 16, one line per mouse) worked out at 571 mg/dL. Further, in the assay on NODSCID mice (NODSCID, head 'age (wks.)' 18, one line per mouse), the “blood glucose / status of single mouse, column 18 (8/1)” value is reported as “Dead”.
